Laboratory results reported in patent US10017480B2, “Compounds having a selective PDE4D inhibiting activity” (UNIVERSITÂ DEGLI STUDI DI GENOVA, priority 2014, dated 2018).
Values joined by “and” are separate entries in the source; they are usually repeats but may differ in a detail not shown here. Identical values can stand only once. Counter-ions that a name gives are not always drawn. Like-named read-outs stand apart in the source and are kept apart here.

What was measured:
PDE4D3 = PDE4D3 (Homo sapiens, UniProt Q08499); experiment: PDE4D3 enzyme inhibition (IMAP); format: biochemical
PDE4D3, sequence (Q08499 1-673 isoform Q08499-2): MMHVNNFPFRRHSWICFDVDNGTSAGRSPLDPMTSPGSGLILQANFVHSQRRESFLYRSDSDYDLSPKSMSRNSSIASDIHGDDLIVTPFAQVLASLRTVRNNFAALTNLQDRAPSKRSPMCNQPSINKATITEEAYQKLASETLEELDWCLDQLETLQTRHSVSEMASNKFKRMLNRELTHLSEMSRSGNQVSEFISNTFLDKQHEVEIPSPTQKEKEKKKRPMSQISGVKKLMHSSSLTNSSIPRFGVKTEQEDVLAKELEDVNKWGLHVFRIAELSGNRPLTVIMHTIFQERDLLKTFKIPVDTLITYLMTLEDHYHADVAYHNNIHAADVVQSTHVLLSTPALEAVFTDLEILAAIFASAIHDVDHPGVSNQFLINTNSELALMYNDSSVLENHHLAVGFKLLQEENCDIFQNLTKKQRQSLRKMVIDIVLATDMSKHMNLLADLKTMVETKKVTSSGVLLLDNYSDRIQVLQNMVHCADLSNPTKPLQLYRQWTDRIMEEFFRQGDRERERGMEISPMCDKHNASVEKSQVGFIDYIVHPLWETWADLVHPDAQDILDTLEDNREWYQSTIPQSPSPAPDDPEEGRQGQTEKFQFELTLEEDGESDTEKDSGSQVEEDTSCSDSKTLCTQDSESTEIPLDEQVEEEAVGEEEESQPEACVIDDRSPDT
Experimental: (§1) Compound's evaluation on PDE4D3, PDE4A4, PDE4B2 and PDE4C2 enzyme assays were performed by Scottish Biomedical (Glasgow, Scotland, UK) using recombinant human PDE enzymes expressed in a baculoviral system. The preliminary screening assays were performed by the IMAP technology (Molecular Devices), which is based on the high affinity binding of phosphate by immobilized metal coordination complexes on nanoparticles. The binding reagent complexes with phosphate groups on nucleotide monophosphate generated from cyclic nucleotides (cAMP) through phosphodiesterases. With fluorescence polarization detection, binding causes a change in the rate of the molecular motion of the phosphate bearing molecule and results in an increase in the fluorescence polarization value observed for the fluorescent label attached to the substrate. […] All compounds were solved in DMSO at 10^−2 M concentration and then diluted with water to the final suitable concentrations. All synthesized compounds were tested preliminary on PDE4D3 at 10^−5 M concentration, in duplicate. Results are expressed as a percent inhibition of control activity (see table 1).
IC50 values are reported at μM concentration in table 1. […] The results are reported (as percent of inhibition at 10 μM concentration) in Table 1.

PDE4C2 = molecular target: T1, PDE4C2 (Homo sapiens, UniProt Q08493); experiment: PDE4C2 enzyme inhibition (IMAP); format: biochemical
T1 construct: purchased Scottish Biomedical (Glasgow, Scotland, UK); host or cells: baculoviral system
T1 sequence (Q08493 107-712): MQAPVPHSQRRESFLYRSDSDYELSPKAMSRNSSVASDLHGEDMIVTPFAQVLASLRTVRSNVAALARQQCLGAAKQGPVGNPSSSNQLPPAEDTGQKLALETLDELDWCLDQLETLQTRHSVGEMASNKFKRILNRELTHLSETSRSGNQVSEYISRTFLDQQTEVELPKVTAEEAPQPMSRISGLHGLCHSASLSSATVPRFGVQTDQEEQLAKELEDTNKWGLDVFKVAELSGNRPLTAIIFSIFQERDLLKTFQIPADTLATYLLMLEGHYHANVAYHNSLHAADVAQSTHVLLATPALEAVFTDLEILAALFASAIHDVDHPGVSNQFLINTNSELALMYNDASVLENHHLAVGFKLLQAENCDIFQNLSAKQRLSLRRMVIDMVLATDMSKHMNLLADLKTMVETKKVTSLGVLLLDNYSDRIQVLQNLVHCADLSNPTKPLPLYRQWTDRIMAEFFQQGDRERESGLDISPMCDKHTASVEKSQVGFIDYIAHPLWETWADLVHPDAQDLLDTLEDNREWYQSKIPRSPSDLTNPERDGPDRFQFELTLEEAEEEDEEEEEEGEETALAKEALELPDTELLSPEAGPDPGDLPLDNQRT
Experimental: as §1
The IC50 values obtained for the reference compounds are within accepted limits of historic averages obtained (0.5 log unit). IC50 values are reported at μM concentration in table 1. […] The results are reported (as percent of inhibition at 10 μM concentration) in Table 1.

SMILES | melting point | PDE4D3 % inib at 10 μM (PDE4D3; 10 μM, in duplicate) [%] | PDE4D3 % inib at 10 μM (PDE4D3) [%] | PDE4C2 % inib at 10 μM (PDE4C2) [%]
COc1ccc(-c2cc(C(=O)CN3CCOCC3)on2)cc1OC1CCCC1 (as salt: hydrochloride) [XVa, 1-{3-[3-(Cyclopentyloxy)-4-methoxyphenyl]isoxazol-5-yl}-2-morpholin-4-ylethanone hydrochloride] | 175 °C (dec.) | – | – | –
COc1ccc(-c2cc(C(=O)CN3CC(C)OC(C)C3)on2)cc1OC1CCCC1 (stereo not drawn) (as salt: hydrochloride) [XVb, 1-{3-[3-(Cyclopentyloxy)-4-methoxyphenyl]isoxazol-5-yl}-2-(2,6-dimethylmorpholin-4-yl)ethanone hydrochloride] | 200 °C (dec.) | – | – | –
COc1ccc(-c2ccn(CC(O)CN3CCOCC3)n2)cc1OC1CCCC1 (stereo not drawn) (as salt: salt) [XVIIIa, 1-{3-[3-(Cyclopentyloxy)-4-methoxyphenyl]-1H-pyrazol-1-yl}-3-morpholin-4-ylpropan-2-ol dihydrocloride] | 162 to 163 °C | – | – | –
COc1ccc(-c2ccn(CC(O)CN3CC(C)OC(C)C3)n2)cc1OC1CCCC1 (stereo not drawn) (as salt: salt) [XVIIIb, 1-{3-[3-(Cyclopentyloxy)-4-methoxyphenyl]-1H-pyrazol-1-yl}-3-(2,6-dimethylmorpholin-4-yl)propan-2-ol dihydrocloride] | 188 to 189 °C | – | – | –
COc1ccc(C2=NOC(C(=O)N3CCOCC3)C2)cc1OC1CCCC1 (stereo not drawn) [XIIIa, 4-({3-[3-(Cyclopentyloxy)-4-methoxyphenyl]-4,5-dihydroisoxazol-5-yl}carbonyl)morpholine] | 115 to 116 °C | 21 | – | –
COc1ccc(C2=NOC(C(=O)N3CC(C)OC(C)C3)C2)cc1OC1CCCC1 (stereo not drawn) [XIIIb, 4-({3-[3-(Cyclopentyloxy)-4-methoxyphenyl]-4,5-dihydroisoxazol-5-yl}carbonyl)-2,6-dimethylmorpholine] | 127 to 129 °C | 29 | – | –
COc1ccc(C2=NOC(C(=O)N3CCC(O)CC3)C2)cc1OC1CCCC1 (stereo not drawn) [XIIIc, 1-({3-[3-(Cyclopentyloxy)-4-methoxyphenyl]4,5-dihydroisoxazol-5-yl}carbonyl)piperidin-4-ol] | 134 °C | 26 | – | –
COc1ccc(C2=NOC(C(=O)N3CCCC3)C2)cc1OC1CCCC1 (stereo not drawn) [XIIId, 3-[3-(Cyclopentyloxy)-4-methoxyphenyl]-5-(pyrrolidin-1-ylcarbonyl)-4,5-dihydroisoxazole] | 126 to 127 °C | 15 | – | –
COc1ccc(C2=NOC(C(=O)N3CCCCC3)C2)cc1OC1CCCC1 (stereo not drawn) [XIIIe, 1-({3-[3-(Cyclopentyloxy)-4-methoxyphenyl]-4,5-dihydroisoxazol-5-yl}carbonyl)piperidine] | 130 °C | 8 | – | –
COc1ccc(C2=NOC(C(=O)N(CCO)CCO)C2)cc1OC1CCCC1 (stereo not drawn) [XIIIf, 3-[3-(Cyclopentyloxy)-4-methoxyphenyl]-N,N-bis(2-hydroxyethyl)-4,5-dihydroisoxazole-5-carboxamide] | – | 33 | – | –
COc1ccc(C2=NOC(CC(=O)N3CCOCC3)C2)cc1OC1CCCC1 (stereo not drawn) [XIVa, 4-({3-[3-(Cyclopentyloxy)-4-methoxyphenyl]-4,5-dihydroisoxazol-5-yl}acetyl)morpholine] | 144 °C and 144 to 145 °C | 29 | – | –
COc1ccc(C2=NOC(CC(=O)N3CCC(O)CC3)C2)cc1OC1CCCC1 (stereo not drawn) [XIVc, 1-({3-[3-(Cyclopentyloxy)-4-methoxyphenyl]-4,5-dihydroisoxazol-5-yl}acetyl)piperidin-4-ol] | 134 °C | 30 | – | –
COc1ccc(C2=NOC(CC(=O)N3CCCCC3)C2)cc1OC1CCCC1 (stereo not drawn) [XIVe, 1-({3-[3-(Cyclopentyloxy)-4-methoxyphenyl]-4,5-dihydroisoxazol-5-yl}acetyl)piperidine] | 104 to 106 °C | 40 | – | –
COc1ccc(C2=NOC(CC(=O)N3CCNCC3)C2)cc1OC1CCCC1 (stereo not drawn) [XIVf, 1-({3-[3-(Cyclopentyloxy)-4-methoxyphenyl]-4,5-dihydroisoxazol-5-yl}acetyl)piperazine] | 108 to 111 °C | 23 | – | –
COc1ccc(-c2ccn(CC(O)CN3CCC(O)CC3)n2)cc1OC1CCCC1 (stereo not drawn) [XVIIIc, 1-(3-{3-[3-(cyclopentyloxy)-4-methoxyphenyl]4H-pyrazol-1-yl}-2-hydroxypropyl)piperidin-4-ol] | – | 2 | – | –
COc1ccc(-c2cc(C(=O)N3CCOCC3)on2)cc1OC1CCCC1 [XVIIa, 4-({3-[3-(Cyclopentyloxy)-4-methoxyphenyl]isoxazol-5-yl}carbonyl)morpholine] | 100 to 101 °C | 41 | – | –
COc1ccc(-c2cc(C(=O)N3CC(C)OC(C)C3)on2)cc1OC1CCCC1 (stereo not drawn) [XVIIb, 4-({3-[3-(Cyclopentyloxy)-4-methoxyphenyl]isoxazol-5-yl}carbonyl)-2,6-dimethylmorpholine] | 152 to 153 °C | 35 | – | –

SMILES | melting point | PDE4D3 % inib at 10 μM (PDE4D3; 10 μM, in duplicate) [%] | PDE4D3 % inib at 10 μM (PDE4D3) [%] | PDE4C2 % inib at 10 μM (PDE4C2) [%]
COc1ccc(-c2cc(C(O)CN3CCOCC3)on2)cc1OC1CCCC1 (stereo not drawn) [XVIa, 1-{3-[3-(Cyclopentyloxy)-4-methoxyphenyl]isoxazol-5-yl}-2-morpholin-4-ylethanol] | 136 to 137 °C | 38 | – | –
COc1ccc(-c2cc(C(=O)CN3CCOCC3)on2)cc1OC1CCCC1 [XVa, 1-{3-[3-(Cyclopentyloxy)-4-methoxyphenyl]isoxazol-5-yl}-2-morpholin-4-ylethanone hydrochloride] | – | 39 | – | –
COc1ccc(-c2cc(C(=O)CN3CC(C)OC(C)C3)on2)cc1OC1CCCC1 (stereo not drawn) [XVb, 1-{3-[3-(Cyclopentyloxy)-4-methoxyphenyl]isoxazol-5-yl}-2-(2,6-dimethylmorpholin-4-yl)ethanone hydrochloride] | – | 13 | – | –
COc1ccc(-c2ccn(CC(=O)N3CCOCC3)c2)cc1OC1CCCC1 [XXIIIa, 2-{3-[3-(cyclopentyloxy)-4-methoxy-phenyl]-pyrrol-1-yl}-1-morpholin-4-yl-ethanone] | 169 to 171 °C | 7 | – | –
COc1ccc(-c2ccn(CC(=O)N3CC(C)OC(C)C3)c2)cc1OC1CCCC1 (stereo not drawn) [XXIIIb, 2-{3-[3-(Cyclopentyloxy)-4-methoxy-phenyl]-pyrrol-1-yl}-1-(2,6-dimethyl-morpholin-4-yl)-ethanone] | 108 to 112 °C | 13 | – | –
COc1ccc(-c2ccn(CC(=O)N3CCC(O)CC3)c2)cc1OC1CCCC1 [XXIIIc, 2-{3-[3-(Cyclopentyloxy)-4-methoxy-phenyl]-pyrrol-1-yl}-1-(4-hydroxy-piperidin-1-yl)-ethanone] | 156 to 158 °C | 9 | – | –
OC1CCN(CC(O)Cn2ccc(-c3ccc(OC(F)F)c(OC4CCCC4)c3)n2)CC1 (stereo not drawn) [XXIIc, 1-(3-{3-[3-(cyclopentyloxy)-4-difluoromethoxy-phenyl]-pyrazol-1-yl}-2-hydroxy-propyl)-piperidin-4-ol] | – | – | 73 | –
COc1ccc(-c2ccn(CCC(=O)N3CCOCC3)c2)cc1OC1CCCC1 [XXIVa, 3-{3-[3-(cyclopentyloxy)-4-methoxy-phenyl]-pyrrol-1-yl}-1-morpholin-4-yl-propan-1-one] | 110 to 112 °C | 44 | – | –
COc1ccc(-c2ccn(CCC(=O)N3CCC(O)CC3)c2)cc1OC1CCCC1 [XXIVc] | 110 to 112 °C | 29 | – | –
COc1ccc(-c2ccn(CCC(=O)N3CCOCC3)n2)cc1OC1CCCC1 [XXIa, 4-(3-{3-[3-(cyclopentyloxy)-4-methoxyphenyl]-1H-pyrazol-1-yl}propanoyl)morpholine] | – | 42 | – | 10
COc1ccc(-c2c[nH]cc2C(=O)N2CCOCC2)cc1OC1CCCC1 [XXVIa, {4-[3-(Cyclopentyloxy)-4-methoxy-phenyl]-1H-pyrrol-3-yl}-morpholin-4-yl-methanone] | – | 13 | – | –
COc1ccc(-c2c[nH]cc2C(=O)N2CC(C)OC(C)C2)cc1OC1CCCC1 (stereo not drawn) [XXVIb, {4-[3-(Cyclopentyloxy)-4-methoxy-phenyl]-1H-pyrrol-3-yl}-(2,6-dimethyl-morpholin-4-yl)-methanone] | – | 6 | – | –
COc1ccc(-c2c[nH]cc2C(=O)N2CCC(O)CC2)cc1OC1CCCC1 [XXVIc, {4-[3-(Cyclopentyloxy)-4-methoxy-phenyl]-1H-pyrrol-3-yl}-(4-hydroxy-piperidin-1-yl)-methanone] | – | 15 | – | –
COc1ccc(-c2ccn(CC(O)CN3CCOCC3)c2)cc1OC1CCCC1 (stereo not drawn) [XXVa, 1-{3-[3-(Cyclopentyloxy)-4-methoxy-phenyl]-pyrrol-1-yl}-3-morpholin-4-yl-propan-2-ol] | – | 21 | – | –
COc1ccc(-c2ccn(CC(O)CN3CC(C)OC(C)C3)c2)cc1OC1CCCC1 (stereo not drawn) [XXVb, 1-{3-[3-(Cyclopentyloxy)-4-methoxy-phenyl]-pyrrol-1-yl}-3-(2,6-dimethyl-morpholin-4-yl)-propan-2-ol] | – | 36 | – | –
COc1ccc(-c2ccn(CC(O)CN3CCC(O)CC3)c2)cc1OC1CCCC1 (stereo not drawn) [XXVc, 1-(3-{3-[3-(cyclopentyloxy)-4-methoxy-phenyl]-pyrrol-1-yl}-2-hydroxy-propyl)-piperidin-4-ol] | – | 5 | – | –
